Measured values published in PMC12048435, “Multifunctional acyltransferases involved in the synthesis of triacylglycerol, fatty acid phytyl esters and plastoquinol esters in cyanobacteria” (Planta, 2025).

Assays:
[1] = biological target: T1, slr2103 (Synechocystis sp. PCC 6803, UniProt P73931); test: feeding of E. coli cells expressing slr2103, acyl-DPQ product by LC-MS/MS; type: cell-based; details: supplied as decylplastoquinone (1500 nmol in 5 ml), reduced in cells; acyl donor from E. coli; 30 C, 3 h
T1 construct: cloned in pQE-80L, expressed in E. coli; intact cells fed with substrate
T1 sequence (P73931 1-294): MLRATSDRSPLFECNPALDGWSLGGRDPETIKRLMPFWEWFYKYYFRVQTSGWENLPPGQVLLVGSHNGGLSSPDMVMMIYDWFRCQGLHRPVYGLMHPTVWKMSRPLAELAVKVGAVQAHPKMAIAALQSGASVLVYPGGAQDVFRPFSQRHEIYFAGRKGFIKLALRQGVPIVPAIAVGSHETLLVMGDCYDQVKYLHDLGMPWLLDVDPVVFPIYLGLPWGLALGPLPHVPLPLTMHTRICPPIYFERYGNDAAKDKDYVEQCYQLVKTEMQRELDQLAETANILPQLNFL

[2] = biological target: T1, slr2103; test: feeding of E. coli cells expressing slr2103, TAG product by MS; type: cell-based; details: 1500 nmol substrate in 5 ml; acyl donor from E. coli; 30 C, 3 h
[3] = biological target: T2, A0918 (Picosynechococcus sp. PCC 7002, UniProt B1XIY0); test: in vitro acyltransferase assay with E. coli microsomal membranes, TAG product by MS; type: biochemical; details: 50 uM palmitoyl-CoA, 200 uM substrate, 20 mM MgCl2, 0.1% CHAPS, pH 7.4, 37 C, 20 min
T2 construct: gene plsC; amplified from genomic DNA, cloned in pQE-80L, expressed in E. coli; microsomal membrane fraction
T2 sequence (B1XIY0 1-291): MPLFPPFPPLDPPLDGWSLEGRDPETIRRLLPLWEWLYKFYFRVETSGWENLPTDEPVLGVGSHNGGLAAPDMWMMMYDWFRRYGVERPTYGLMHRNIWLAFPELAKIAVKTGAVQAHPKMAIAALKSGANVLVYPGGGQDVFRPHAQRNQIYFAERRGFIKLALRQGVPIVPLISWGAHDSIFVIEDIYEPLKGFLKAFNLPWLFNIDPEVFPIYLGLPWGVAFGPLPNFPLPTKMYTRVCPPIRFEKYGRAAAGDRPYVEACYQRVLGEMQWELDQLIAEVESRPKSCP

Structure (SMILES) | feeding of E. coli cells expressing slr2103, acyl-DPQ product by LC-MS/MS [1] | feeding of E. coli cells expressing slr2103, TAG product by MS [2] | in vitro acyltransferase assay with E. coli microsomal membranes, TAG product by [3]
CCCCCCCCCCc1cc(O)c(C)c(C)c1O [DPQ, decylplastoquinol] | slr2103 is capable of acylating one of the quinol hydroxyl groups of DPQ | – | –
CCCCCCCC(=O)OCC(CO)OC(=O)CCCCCCC (stereo not drawn) [dioctanoin] | – | Accumulation of TAG after supplementation of E. coli cells expressing slr2103 with dioctanoin | confirming that A0918 harbors acyltransferase activity for the synthesis of TAG and FAPE
